This is an account of results in patent US9499553B2 (CHUGAI SEIYAKU KABUSHIKI KAISHA, priority 2013, dated 2016).

Where two headings read alike, the source gives them in different places. Some results are limits rather than exact numbers.

This test deals with T1, human NaPi-IIb (Homo sapiens, UniProt O95436).
T1 construct: expressed in transfected cells
T1 sequence (O95436 1-690): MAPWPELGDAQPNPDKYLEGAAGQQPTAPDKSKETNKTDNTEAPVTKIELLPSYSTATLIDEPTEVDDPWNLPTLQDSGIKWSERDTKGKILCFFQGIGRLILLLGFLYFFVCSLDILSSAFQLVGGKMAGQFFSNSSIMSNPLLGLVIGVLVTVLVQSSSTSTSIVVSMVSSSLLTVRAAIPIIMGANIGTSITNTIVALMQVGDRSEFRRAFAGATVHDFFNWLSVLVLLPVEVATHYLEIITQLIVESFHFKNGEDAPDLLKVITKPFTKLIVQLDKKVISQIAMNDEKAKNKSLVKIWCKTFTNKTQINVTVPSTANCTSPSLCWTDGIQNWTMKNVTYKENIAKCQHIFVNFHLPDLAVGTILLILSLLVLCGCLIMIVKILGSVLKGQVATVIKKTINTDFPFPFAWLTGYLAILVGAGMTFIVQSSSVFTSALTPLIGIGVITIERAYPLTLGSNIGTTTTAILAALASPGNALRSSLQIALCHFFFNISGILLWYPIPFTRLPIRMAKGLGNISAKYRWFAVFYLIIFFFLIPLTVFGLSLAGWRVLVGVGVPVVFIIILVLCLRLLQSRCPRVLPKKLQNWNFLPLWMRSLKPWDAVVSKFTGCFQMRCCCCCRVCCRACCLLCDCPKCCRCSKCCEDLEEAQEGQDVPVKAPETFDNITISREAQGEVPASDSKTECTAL
Briefly: Inhibitory effect on 33PO4 uptake into human NaPi-IIb-expressing CHO cells. The test is classed as cell-based. In outline:
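Uptake of ³³PO4 was measured by scintillation counting after ice-cold buffer A washes. Cells were CHO stably expressing human NaPi-IIb, seeded overnight, and exposed to ³³PO4 in buffer A at room temperature.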

Setting [1] is: read-out: IC50 against 33PO4 uptake into human NaPi-IIb-expressing cells.

Turning to `C[C@]12CCCN1N(Cc1ccc(F)cc1F)C(=O)C(C(=O)Nc1ccc(C(F)(F)F)cc1-c1ccc(C(F)(F)F)nc1)=C2O` [Example 173], the IC50 (as a rule, the concentration that inhibits the measured activity by half) (read-out: IC50) came out at 1.9 µM.

As to `CN1[C@@H](C(C)(C)C)C(O)=C(C(=O)Nc2ccc(C(F)(F)F)cc2-c2ccnc(C#N)c2)C(=O)N1Cc1ccc(OCCN2CCOCC2)c(F)c1F` [Example 271], the IC50 (read-out: IC50) was 17.3 µM.

`C[C@]12CCCN1N(Cc1cccc(F)c1F)C(=O)C(C(=O)Nc1ccc(C(F)(F)F)cc1-c1cnc(C#N)c([N+](=O)[O-])c1)=C2O` [Example 99, (4aR)—N-[2-(6-Cyano-5-nitropyridin-3-yl)-4-(trifluoromethyl)phenyl]-1-[(2,3-difluorophenyl)methyl]-4-hydroxy-4a-methyl-2-oxo-6,7-dihydro-5H-pyrrolo[1,2-b]pyridazine-3-carboxamide]: the IC50 (read-out: IC50) was found to be 4.3 µM.

For `C[C@]12CCCN1N(Cc1cccc(F)c1F)C(=O)C(C(=O)Nc1ccc(C(F)(F)F)cc1-c1cc(C#N)ncn1)=C2O` [Example 100], the IC50 (read-out: IC50) was found to be 6.7 µM.

Turning to `CN1N(Cc2ccc(OC3COC3)c(F)c2F)C(=O)C(C(=O)Nc2ccc(C(F)(F)F)cc2-c2cc(C(F)(F)F)ncn2)=C(O)C12CCC2` [Example 403, 6-(2,3-Difluoro-4-(oxetan-3-yloxy)benzyl)-9-hydroxy-5-methyl-7-oxo-N-(4-(trifluoromethyl)-2-(6-(trifluoromethyl)pyrimidin-4-yl)phenyl)-5,6-diazaspiro[3.5]non-8-ene-8-carboxamide], the IC50 under setting [1] worked out at 6.3 µM.

Take `CN1N(Cc2ccc(OCCN3CCOCC3)c(F)c2F)C(=O)C(C(=O)Nc2ccc(Cl)cc2-c2cc(C(F)(F)F)ncn2)=C(O)C12CCCCC2` [Example 297]: the IC50 (read-out: IC50) is 18.3 µM.

On to `CC(=O)NCCN(C)CCOc1ccc(CN2C(=O)C(C(=O)Nc3ccc(C(F)(F)F)cc3-c3cc(C(F)(F)F)ncn3)=C(O)C3(CCC3)N2C)c(F)c1F` [Example 353], for which, under setting [1], the IC50 was 23.9 µM.

For the compound `CN1N(Cc2ccc(OCCN3C4CCC3COC4)c(F)c2F)C(=O)C(C(=O)Nc2ccc(C(F)(F)F)cc2-c2cc(C(F)(F)F)ncn2)=C(O)C12CCC2` [Example 340], where the note is “read-out: IC50”, the IC50 came out at 10 µM.

For the compound `C[C@]12CCCN1N(Cc1ccc(OC[C@H]3CCCO3)c(F)c1F)C(=O)C(C(=O)Nc1ccc(C(F)(F)F)cc1-c1ccc(C(F)(F)F)nc1)=C2O` [Example 160], for the setting “read-out: IC50”, the half-maximal inhibitory concentration (IC50) is 7.3 µM.

On to `CN1[C@@H](C(C)(C)C)C(O)=C(C(=O)Nc2ccc(Cl)cc2-c2cc(C#N)ncn2)C(=O)N1Cc1ccc(OCCN2CCOCC2)c(F)c1F` [Example 272], for which the half-maximal inhibitory concentration (IC50) (read-out: IC50) was determined as 19.5 µM.

`CN(CCOc1ccc(CN2C(=O)C(C(=O)Nc3ccc(C(F)(F)F)cc3-c3cc(C(F)(F)F)ncn3)=C(O)C3(CCCC3)N2C)c(F)c1F)C1CCOCC1` [Example 365]: under setting [1], the IC50 turned out to be 12.2 µM.

With `COCCN(C)CCN(C)c1ccc(CN2C(=O)C(C(=O)Nc3ccc(C(F)(F)F)cc3-c3cc(C(F)(F)F)ncn3)=C(O)C3(CCCC3)N2C)c(F)c1F` [Example 442], under setting [1], the IC50 came out at 6.3 µM.

With `CSc1ccc(-c2nc(C(F)(F)F)ccc2NC(=O)C2=C(O)[C@@]3(C)CCCN3N(Cc3cccc(F)c3F)C2=O)cn1` [Example 105], where the note is “read-out: IC50”, the IC50 was 6.3 µM.

`CN1N(Cc2cccc(F)c2F)C(=O)C(C(=O)Nc2ccc(C(F)(F)F)cc2-c2ccc(C(F)(F)F)nc2)=C(O)C12CCC2` [Example 301]: the IC50 (read-out: IC50) amounted to 2.6 µM.

Consider `CCN1[C@@H](C(C)(C)C)C(O)=C(C(=O)Nc2cc(F)c(Br)c(F)c2)C(=O)N1Cc1cccc(F)c1F` [Example 246], for which the IC50 (read-out: IC50) turned out to be 8.6 µM.

Regarding `CN1N(Cc2ccc(OCCCOCCCO)c(F)c2F)C(=O)C(C(=O)Nc2ccc(C(F)(F)F)cc2-c2cc(C(F)(F)F)ncn2)=C(O)C12CCCC2` [Example 398], under setting [1], the IC50 came to 9.9 µM.

With `C[C@]12CCCN1N(Cc1ccc(OCCN3CCOCC3)c(Cl)c1)C(=O)C(C(=O)Nc1ccc(C(F)(F)F)cc1-c1ccc(C(F)(F)F)nc1)=C2O` [Example 149, (4aR)-1-[[3-Chloro-4-(2-morpholin-4-ylethoxy)phenyl]methyl]-4-hydroxy-4a-methyl-2-oxo-N-[4-(trifluoromethyl)-2-[6-(trifluoromethyl)pyridin-3-yl]phenyl]-6,7-dihydro-5H-pyrrolo[1,2-b]pyridazine-3-carboxamide], the IC50 (read-out: IC50) amounted to 19.7 µM.

On to `CSc1ccc(-c2cc(C(F)(F)F)ccc2NC(=O)C2=C(O)[C@H](C(C)(C)C)N(C)N(Cc3ccc(OCCN4CCOCC4)c(F)c3F)C2=O)cn1` [Example 268], for which the IC50 (read-out: IC50) worked out at 7.4 µM.

As for `CN(CCOCCOc1ccc(CN2C(=O)C(C(=O)Nc3ccc(C(F)(F)F)cc3-c3cc(C(F)(F)F)ncn3)=C(O)C3(CCCC3)N2C)c(F)c1F)C[C@H](O)[C@@H](O)[C@H](O)[C@H](O)CO` [Example 420, 7-[[2,3-Difluoro-4-[2-[2-[methyl-[(2S,3R,4R,5R)-2,3,4,5,6-pentahydroxyhexyl]amino]ethoxy]ethoxy]phenyl]methyl]-10-hydroxy-6-methyl-8-oxo-N-[4-(trifluoromethyl)-2-[6-(trifluoromethyl)pyrimidin-4-yl]phenyl]-6,7-diazaspiro[4.5]dec-9-ene-9-carboxamide], under setting [1], the IC50 worked out at 18.6 µM.

Consider `CN1[C@@H](C(C)(C)C)C(O)=C(C(=O)Nc2ccc(Br)c(C(F)(F)F)c2)C(=O)N1Cc1cccc(F)c1F` [Example 243], for which, for the setting “read-out: IC50”, the concentration for half-maximal inhibition (IC50) was found to be 7.4 µM.

Take `C[C@H]1COC[C@H](C)N1CCOc1ccc(CN2C(=O)C(C(=O)Nc3ccc(C(F)(F)F)cc3-c3cc(C(F)(F)F)ncn3)=C(O)C3(CCC3)N2C)c(F)c1F` [Example 343]: the IC50 (read-out: IC50) amounted to 21 µM.

As for `C[C@]12CCCN1N(Cc1cccc(F)c1F)C(=O)C(C(=O)Nc1ccc(Br)cn1)=C2O` [Example 78], the IC50 (read-out: IC50) came out at 5.2 µM.

With `C[C@]12CCCN1N(Cc1cccc(OC(F)(F)F)c1)C(=O)C(C(=O)Nc1ccc(C(F)(F)F)cc1-c1cc(C(F)(F)F)ncn1)=C2O` [Example 189], the IC50 (read-out: IC50) turned out to be 5.5 µM.

With `C[C@]12CCCN1N(Cc1cccc(F)c1F)C(=O)C(C(=O)Nc1ccc(C(F)(F)F)cc1)=C2O` [Example 89], the IC50 (read-out: IC50) was 4.8 µM.

`C[C@]12CCCN1N(Cc1ccc(F)c(F)c1)C(=O)C(C(=O)Nc1ccc(C(F)(F)F)cc1-c1ccc(C(F)(F)F)nc1)=C2O` [Example 170]: the IC50 (read-out: IC50) amounted to 2.2 µM.

For the compound `CC(C)(C)[C@H]1C(O)=C(C(=O)Nc2cc(F)c(Br)c(F)c2)C(=O)N(Cc2cccc(F)c2F)N1CC(F)(F)F` [Example 248], where the note is “read-out: IC50”, the 50% inhibitory concentration (IC50) amounted to 17.6 µM.

Take `CC(C)[C@@H]1C(O)=C(C(=O)Nc2ccc(C(F)(F)F)cc2-c2cc(C(F)(F)F)ncn2)C(=O)N(Cc2cccc(F)c2F)N1C` [Example 249]: the IC50 (read-out: IC50) was 9.8 µM.

As to `CN1N(Cc2ccc(OCCN3CCN(CCOCCO)CC3)c(F)c2F)C(=O)C(C(=O)Nc2ccc(C(F)(F)F)cc2-c2cc(C(F)(F)F)ncn2)=C(O)C12CCCC2` [Example 378], under setting [1], the IC50 is 18 µM.

Turning to `CN1N(Cc2ccc(OCCN3CCOCC3)c(F)c2F)C(=O)C(C(=O)Nc2ccc(Br)c(C(F)(F)F)n2)=C(O)C12CCCCC2` [Example 298], the IC50 (read-out: IC50) was more than 30 µM.

`COC(=O)c1cccc(CN2C(=O)C(C(=O)Nc3ccc(C(F)(F)F)cc3-c3cc(C(F)(F)F)ncn3)=C(O)[C@@]3(C)CCCN23)c1` [Example 183]: for the setting “read-out: IC50”, the IC50 is 9.1 µM.

`CCCCCN1C(=O)C(C(=O)Nc2ccc(C(F)(F)F)cc2-c2ccc(C(F)(F)F)nc2)=C(O)[C@@]2(C)CCCN12` [Example 26]: under “read-out: IC50”, the IC50 stood at 2.2 µM.

As to `C[C@]12CCCN1N(Cc1cccc(F)c1F)C(=O)C(C(=O)Nc1ccc(Br)cc1-c1ccc(Cl)nc1)=C2O` [Example 122, (4aR)—N-[4-Bromo-2-(6-chloropyridin-3-yl)phenyl]-1-[(2,3-difluorophenyl)methyl]-4-hydroxy-4a-methyl-2-oxo-6,7-dihydro-5H-pyrrolo[1,2-b]pyridazine-3-carboxamide], for the setting “read-out: IC50”, the IC50 is 8.6 µM.

Turning to `CN1N(Cc2cccc(F)c2F)C(=O)C(C(=O)Nc2ccc(Cl)cc2-c2cc(C(F)(F)F)ncn2)=C(O)C12CCCC2` [Example 261], the IC50 (read-out: IC50) worked out at 7.7 µM.

As for `CN1N(Cc2cccc(F)c2F)C(=O)C(C(=O)Nc2ccc(C(F)(F)F)cc2-c2cncc(C(F)(F)F)c2)=C(O)C1(C)C` [Example 305], the IC50 (read-out: IC50) was 5.9 µM.

Take `COc1cccc(-c2cc(C(F)(F)F)ccc2NC(=O)C2=C(O)[C@@]3(C)CCCN3N(Cc3cccc(F)c3F)C2=O)n1` [Example 93]: the IC50 (read-out: IC50) was 17.4 µM.

For `CN1N(Cc2ccc(OC(C)(C)CN3CCOCC3)c(F)c2F)C(=O)C(C(=O)Nc2ccc(C(F)(F)F)cc2-c2cc(C(F)(F)F)ncn2)=C(O)C12CCC2` [Example 407, 6-[[2,3-Difluoro-4-(2-methyl-1-morpholin-4-ylpropan-2-yl)oxyphenyl]methyl]-9-hydroxy-5-methyl-7-oxo-N-[4-(trifluoromethyl)-2-[6-(trifluoromethyl)pyrimidin-4-yl]phenyl]-5,6-diazaspiro[3.5]non-8-ene-8-carboxamide], under setting [1], the IC50 was determined as 6.9 µM.

On to `C[C@]12CCCN1N(Cc1cccc(Cl)c1F)C(=O)C(C(=O)Nc1ccc(C(F)(F)F)cc1-c1cc(C(F)(F)F)ncn1)=C2O` [Example 209], for which, under “read-out: IC50”, the IC50 was 4.8 µM.
